This experiment in a line: HK1 enzyme inhibitors – biochemical, selectivity assay for HKDC1 inhibitor project, dose response (AID 504763).

The structures appear in SMILES notation. Bounds are passed on as bounds.

In turn, `CCOC(=O)c1ccc(NC(=O)CSc2ccc(-c3ccccn3)nn2)cc1` [ethyl 4-[2-(6-pyridin-2-ylpyridazin-3-yl)sulfanylethanoylamino]benzoate] showed a half-maximal inhibitory concentration (IC50) of 2.15 µM. Same read-out and setting: next, `COC(=O)C[C@]1(C(=O)OC)CN(C#N)N(c2ccc(Cl)cc2)C12c1ccccc1-c1ccccc12` [methyl 1-(4-chlorophenyl)-2-cyano-4-(2-methoxy-2-oxoethyl)spiro[pyrazolidine-5,9'-(9'H)-fluorene]-4-carboxylate]: more than 80 µM. In turn, `COC(=O)c1ccccc1NC1=CC(=NS(=O)(=O)c2cccs2)c2ccccc2C1=O` [methyl 2-[[(4E)-1-oxidanylidene-4-thiophen-2-ylsulfonylimino-naphthalen-2-yl]amino]benzoate] returned a half-maximal inhibitory concentration (IC50) (inactive by the depositor's call) of 57 µM.

In turn, `O=C(O)c1ccccc1-c1c2cc(I)c(=O)c(I)c-2oc2c(I)c(O)c(I)cc12` [sodium;2-(2,4,5,7-tetraiodo-3-oxido-6-oxo-9-xanthenyl)benzoate] had a 50% inhibitory concentration (IC50) of 47.2 µM.
